Test results taken from US20040043959A1, “Combination therapies for treating methylthioadenosine phosphorylase deficient cells” (priority 2002, published 2004).

Biological target: T1, Human MTAP (Homo sapiens, UniProt Q13126)
T1 construct: six-histidine tag (His6) (N); made in house; host or cells: E. coli BL21 DE3
T1 sequence (Q13126 1-283): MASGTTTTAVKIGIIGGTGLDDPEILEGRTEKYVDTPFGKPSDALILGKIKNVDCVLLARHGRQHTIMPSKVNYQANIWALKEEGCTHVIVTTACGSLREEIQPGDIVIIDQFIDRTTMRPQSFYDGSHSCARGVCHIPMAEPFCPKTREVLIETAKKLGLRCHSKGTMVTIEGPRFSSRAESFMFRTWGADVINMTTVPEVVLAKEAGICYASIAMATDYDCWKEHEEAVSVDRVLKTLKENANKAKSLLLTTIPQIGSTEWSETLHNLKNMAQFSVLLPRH
Experiment: MTAP substrate assay, coupled spectrophotometric (adenine, xanthine oxidase)
Assay type: biochemical
Conditions: 2 nM MTAP; for activity at 50 µM: 10 min, compound 50 uM, relative to MTA at 50 uM, read-out: MT-A—50: initial velocity as a percentage of the initial velocity with MTA as substrate; for MT-A—10: initial velocity as a percentage of the initial velocity with MTA as substrate: compound 10 uM, relative to MTA at 10 uM
Procedure: An enzymatic assay to determine the activity of MTAP against a given substrate was performed. Human MTAP containing an N-terminal six-histidine tag was expressed in E. coli BL21 DE3 cells. The protein was purified to homogeneity by Ni2+ affinity chromatography. Enzymatic activity was measured using a coupled spectrophotometric assay designed to monitor the reaction product adenine (Savarese, T. M., Crabtree, G. W., and Parks, R. E. Jr., (1980) Biochem. Pharmacol. 30, 189-199). Various concentrations of the indicated 5′-deoxymethylthio adenosine (MTA) or substrate were incubated in assay buffer (40 mM potassium phosphate buffer, 1 mM, and DTT 0.8 units/ml xanthine oxidase coupling enzyme) for 5 minutes at 37° C. The reaction was initiated by the addition of MTAP. The exact concentration of enzyme used varied for each substrate tested and ranged from 2 nM to 500 nM. Activity as a function of enzyme concentration was determined for each substrate tested to ensure that the appropriate enzyme concentration was used. Activity was detected by continuous monitoring of absorbance at 305 nm for 10 minutes (ΔE=15,500 M^−1).
Library compounds (10 and 50 uM) were tested using the assay described above with 2 nM MTAP enzyme. The resultant initial velocities are reported as a percentage of the initial velocity observed when MTA is the substrate. MTA controls, 10 and 50 uM concentrations, were run on each plate alongside the library compounds.

| activity at 50 µM [%] | MT-A—10: initial velocity as a percentage of the initial velocity with MTA as substrate [%] | Structure (SMILES) |
| --- | --- | --- |
| 7 | 6 | CCc1ccccc1SC[C@H]1O[C@@H](n2cnc3c(N)ncnc32)[C@H](O)[C@@H]1O [2(G)(26), (2R, 3R, 4S, 5S)-2-(6-amino-9H-purin-9-yl)-5-{[(2-ethylphenyl)-thio]methyl}tetrahydro-furan-3,4-diol] |
| 23 | 7 | Nc1ncnc2c1ncn2[C@@H]1O[C@H](CSc2ccccc2O)[C@@H](O)[C@H]1O [2(G)(27), (2R, 3R, 4S, 5S)-2-(6-amino-9H-purin-9-yl)-5-{[(2-hydroxyphenyl)-thio]methyl}tetrahydro-furan-3,4-diol] |
| 4 | 6 | Cc1ccc(C)c(SC[C@H]2O[C@@H](n3cnc4c(N)ncnc43)[C@H](O)[C@@H]2O)c1 [2(G)(28)] |
| 19 | 21 | Nc1ncnc2c1ncn2[C@@H]1O[C@H](CSc2cccc(Br)c2)[C@@H](O)[C@H]1O [2(G)(29), (2R, 3R, 4S, 5S)-2-(6-amino-9H-purin-9-yl)-5-{[(3-bromophenyl)-thio]methyl}tetrahydro-furan-3,4-diol] |
| 12 | 11 | C#CCSc1nnc(SC[C@H]2O[C@@H](n3cnc4c(N)ncnc43)[C@H](O)[C@@H]2O)s1 [2(G)(30), (2R, 3R, 4S, 5S)-2-(6-amino-9H-purin-9-yl)-5-({[5-(prop-2-yn-1-ylthio)-1,3,4-thiodiazol-2-yl]thio}methyl)tetra-hydrofuran-3,4-diol] |
| 50 | 46 | Cn1c(O)nnc1SC[C@H]1O[C@@H](n2cnc3c(N)ncnc32)[C@H](O)[C@@H]1O [2(G)(31), (2R, 3R, 4S, 5S)-2-(6-amino-9H-purin-9-yl)-5-{[(5-hydroxy-4-methyl-4H-1,2,4-triazol-3-yl)-thio]methyl}tetrahydro-furan-3,4-diol] |
| 7 | 6 | Cc1cc(C)n2nc(SC[C@H]3O[C@@H](n4cnc5c(N)ncnc54)[C@H](O)[C@@H]3O)nc2n1 [2(G)(32), (2R, 3R, 4S, 5S)-2-(6-amino-9H-purin-9-yl)-5-{[(5,7-dimethyl[1,2,4]-triazolo[1,5-a]pyrimidin-2-yl)thio]methyl}tetra-hydrofuran-3,4-diol] |
| 36 | 28 | Nc1ncnc2c1ncn2[C@@H]1O[C@H](CSc2nccc(C(F)(F)F)n2)[C@@H](O)[C@H]1O [2(G)(33), (2R, 3R, 4S, 5S)-2-(6-amino-9H-purin-9-yl)-5-({[4-(trifluoromethyl)-pyr-imidin-2-yl]thio}methyl)-tetrahydrofuran-3,4-diol] |
| 3 | 2 | Cc1ccc(C(C)(C)C)cc1SC[C@H]1O[C@@H](n2cnc3c(N)ncnc32)[C@H](O)[C@@H]1O [2(G)(34), (2R, 3R, 4S, 5S)-2-(6-amino-9H-purin-9-yl)-5-{[(5-tert-butyl-2-methyl-phenyl)thio]methyl}-tetrahydrofuran-3,4-diol] |
| 11 | 15 | CC(C)c1ccc(SC[C@H]2O[C@@H](n3cnc4c(N)ncnc43)[C@H](O)[C@@H]2O)cc1 [2(G)(35), (2R, 3R, 4S, 5S)-2-(6-amino-9H-purin-9-yl)-5-{[(4-isopropylphenyl)-thio]methyl}tetrahydro-furan-3,4-diol] |
| 40 | 35 | CCOC(=O)c1cnc(SC[C@H]2O[C@@H](n3cnc4c(N)ncnc43)[C@H](O)[C@@H]2O)nc1N [2(G)(36)] |
| 26 | 10 | Cc1occc1SC[C@H]1O[C@@H](n2cnc3c(N)ncnc32)[C@H](O)[C@@H]1O [2(G)(37), (2R, 3R, 4S, 5S)-2-(6-amino-9H-purin-9-yl)-5-{[(2-methyl-3-furyl)thio]methyl}tetra-hydrofuran-3,4-diol] |
| 32 | 30 | Nc1ncnc2c1ncn2[C@@H]1O[C@H](CSCC(F)(F)F)[C@@H](O)[C@H]1O [2(G)(38), (2R, 3R, 4S, 5S)-2-(6-amino-9H-purin-9-yl)-5-{[(2,2,2-trifluoroethyl)-thio]methyl}tetrahydro-furan-3,4-diol] |
| 8 | 7 | CC(C)(C)OC(=O)NCCSC[C@H]1O[C@@H](n2cnc3c(N)ncnc32)[C@H](O)[C@@H]1O [2(G)(39), tert-butyl [2-({[(2S, 3S, 4R, 5R)-5-(6-amino-9H-purin-9-yl)-3,4-dihydroxytetrahydro-furan-2-yl]methyl}thio)-ethyl]carbamate] |
| 10 | 6 | Cc1cc(=O)oc2cc(SC[C@H]3O[C@@H](n4cnc5c(N)ncnc54)[C@H](O)[C@@H]3O)ccc12 [2(G)(40), 7-({[(2S, 3S, 4R, 5R)-5-(6-amino-9H-purin-9-yl)-3,4-dihydroxytetrahydro-furan-2-yl]methyl}thio)-4-methyl-2H-chromen-2-one] |
| 7 | 7 | Nc1ncnc2c1ncn2[C@@H]1O[C@H](CSc2ncc(C(F)(F)F)cc2Cl)[C@@H](O)[C@H]1O [2(G)(41), (2R, 3R, 4S, 5S)-2-(6-amino-9H-purin-9-yl)-5-({[3-chloro-5-(trifluoromethyl)pyridin-yl]thio}methyl)tetra-hydrofuran-3,4-diol] |
| 47 | 38 | Nc1ncnc2c1ncn2[C@@H]1O[C@H](CSc2ccc3ccccc3n2)[C@@H](O)[C@H]1O [2(G)(42), (2R, 3R, 4S, 5S)-2-(6-amino-9H-purin-9-yl)-5-[(quinolin-2-ylthio)methyl]-tetrahydrofuran-3,4-diol] |
| 7 | 5 | Cc1cc(C)c(C#N)c(SC[C@H]2O[C@@H](n3cnc4c(N)ncnc43)[C@H](O)[C@@H]2O)n1 [2(G)(43), 2-({[(2S, 3S, 4R, 5R)-5-(6-amino-9H-purin-9-yl)-dihydroxytetrahydro-furan-2-yl]methyl}thio)-4,6-dimethylnicotino-nitrile] |
| 82 | 77 | C=CCSC[C@H]1O[C@@H](n2cnc3c(N)ncnc32)[C@H](O)[C@@H]1O [2(G)(44), (2R, 3R, 4S, 5S)-2-(6-amino-9H-purin-9-yl)-5-[(allythio)methyl]tetra-hydrofuran-3,4-diol] |
| 57 | 53 | CC(C)SC[C@H]1O[C@@H](n2cnc3c(N)ncnc32)[C@H](O)[C@@H]1O [2(G)(45), (2R, 3R, 4S, 5S)-2-(6-amino-9H-purin-9-yl)-5-[(isopropylthio)methyl]-tetrahydrofuran-3,4-diol] |
| 45 | 42 | Cc1cccc2[nH]c(SC[C@H]3O[C@@H](n4cnc5c(N)ncnc54)[C@H](O)[C@@H]3O)nc12 [2(G)(46), (2R, 3R, 4S, 5S)-2-(6-amino-9H-purin-9-yl)-5-{[(4-methyl-1H-benzimidazol-2-yl)-thio]methyl}tetrahydro-furan-3,4-diol] |
| 50 | 49 | Nc1ncnc2c1ncn2[C@@H]1O[C@H](CSc2nc3cnccc3[nH]2)[C@@H](O)[C@H]1O [2(G)(47), (2R, 3R, 4S, 5S)-2-(6-amino-9H-purin-9-yl)-5-[(1H-imidazo[4,5-c]-pyridin-2-ylthio)methyl]-tetrahydrofuran-3,4-diol] |
| 5 | 3 | Cc1ccc2[nH]c(SC[C@H]3O[C@@H](n4cnc5c(N)ncnc54)[C@H](O)[C@@H]3O)nc2c1 [2(G)(48), (2R, 3R, 4S, 5S)-2-(6-amino-9H-purin-9-yl)-5-{[(5-methyl-1H-benzimidazol-2-yl)thio]-methyl}tetrahydro-furan-3,4-diol] |
| 46 | 52 | Nc1ncnc2c1ncn2[C@@H]1O[C@H](CSc2nc(O)c3cn[nH]c3n2)[C@@H](O)[C@H]1O [2(G)(49), (2R, 3R, 4S, 5S)-2-(6-amino-9H-purin-9-yl)-5-{[(4-hydroxy-1H-pyrazolo[3,4-d]pyrimidin-6-yl)thio]methyl}tetra-hydrofuran-3,4-diol] |
